Here are results for 9 molecules from patent publication US11986471B2, “Compounds and methods of use” (Tango Therapeutics, Inc., priority 2018, dated 2024).

For assay [1], the target named is T1, PRMT5 (Homo sapiens, UniProt O14744).
T1 construct: purchased Viva (custom protein)
Description: PRMT5 IC50 assay with no cofactor. It counts as biochemical. In short, it runs like this: (§1)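 Results given as IC50 (μM), from which Ki follows by dividing by 1.5 in the SAM condition or by 13.5 in the MTA condition. The ratio of SAM Ki to MTA Ki indicates MTA-cooperative preference.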

In a further assay the test system is HAP1 MTAP-intact. Description: SDMA in-cell western assay, HAP1 MTAP-intact cell line. The format is cell-based. Particulars: Homo sapiens. In short, it runs like this:
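Using an MTAP-isogenic HAP1 cell pair, inhibition of SDMA formation is read by in-cell western and expressed as IC50. MTAP-selectivity is assigned where the ratio between lines reaches 3 fold or greater.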

Another assay has as its system HAP1 MTAP-deleted. Description: SDMA in-cell western assay, HAP1 MTAP-deleted cell line. It counts as cell-based. Particulars: for IC50: Homo sapiens, HAP1 MTAP-deleted cell line; for MTAP Intact/Deleted Ratio: IC50 ratio HAP1 MTAP-intact / HAP1 MTAP-deleted. The essentials:
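In-cell western for SDMA marks; MTAP-deleted (null) HAP1 background; values given as IC50.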

Assay [2] has as its target T1, PRMT5. The experiment in a line: PRMT5 IC50 assay in the presence of SAM as cofactor. The format is biochemical. The essentials: as §1
The target of assay [3] is T1, PRMT5. Description: PRMT5 IC50 assay in the presence of MTA as cofactor. Particulars: for IC50: PRMT5, MTA as cofactor. It counts as biochemical. The essentials: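 MTA-dependent versus SAM-dependent inhibition of human PRMT5 was assessed by IC50; conversion factors of 13.5 and 1.5 gave the corresponding Ki.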
Where [4] appears, read: ratio between Ki in the presence of SAM and Ki in the presence of MTA.
[5] abbreviates: ratio between the Ki in the presence of SAM and the Ki in the presence of MTA.

T1 sequence (O14744 whole entry): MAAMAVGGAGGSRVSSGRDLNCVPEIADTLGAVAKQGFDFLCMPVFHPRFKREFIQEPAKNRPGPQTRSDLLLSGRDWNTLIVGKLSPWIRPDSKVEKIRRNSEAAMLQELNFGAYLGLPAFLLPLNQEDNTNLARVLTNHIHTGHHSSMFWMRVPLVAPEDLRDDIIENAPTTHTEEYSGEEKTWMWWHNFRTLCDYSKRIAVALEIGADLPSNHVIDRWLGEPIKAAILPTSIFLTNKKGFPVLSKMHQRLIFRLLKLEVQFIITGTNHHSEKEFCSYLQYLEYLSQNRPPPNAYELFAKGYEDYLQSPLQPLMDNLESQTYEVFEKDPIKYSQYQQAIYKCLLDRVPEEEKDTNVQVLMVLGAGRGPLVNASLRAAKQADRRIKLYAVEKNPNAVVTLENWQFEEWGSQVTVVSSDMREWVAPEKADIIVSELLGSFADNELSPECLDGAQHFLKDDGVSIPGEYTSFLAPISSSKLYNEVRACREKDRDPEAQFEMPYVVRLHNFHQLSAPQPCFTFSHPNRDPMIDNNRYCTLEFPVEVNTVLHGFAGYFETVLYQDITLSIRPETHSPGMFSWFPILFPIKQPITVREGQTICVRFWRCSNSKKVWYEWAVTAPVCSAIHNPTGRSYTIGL
T1 sequence (Q9BQA1 whole entry partner): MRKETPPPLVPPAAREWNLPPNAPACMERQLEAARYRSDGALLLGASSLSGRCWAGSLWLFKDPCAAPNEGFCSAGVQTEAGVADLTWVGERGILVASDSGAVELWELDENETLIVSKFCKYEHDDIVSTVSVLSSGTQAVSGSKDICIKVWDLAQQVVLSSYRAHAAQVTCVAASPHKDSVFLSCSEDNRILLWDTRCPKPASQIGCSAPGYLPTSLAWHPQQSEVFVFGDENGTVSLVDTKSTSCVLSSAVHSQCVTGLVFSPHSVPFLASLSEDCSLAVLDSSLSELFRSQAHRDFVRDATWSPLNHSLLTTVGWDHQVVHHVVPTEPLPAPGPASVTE

Take `Cc1c(OCc2cnco2)ccc2c1CCN(C[C@@H](O)CNC(=O)c1cccc(NC3CCC3)c1)C2` [Compound 351, 3-(cyclobutylamino)-N-[(2S)-2-hydroxy-3-{5-methyl-6-[(1,3-oxazol-5-yl)methoxy]-1,2,3,4-tetrahydroisoquinolin-2-yl}propyl]benzamide]: the half-inhibitory concentration (IC50) at PRMT5 [1] (read-out: No Co-factor IC50) was at least 5 µM; in the assay on HAP1 MTAP-intact, at least 10 µM; in the assay with HAP1 MTAP-deleted, at least 10 µM; at PRMT5 [2], 0.5 to 5 µM; on PRMT5 [3] it was 0.05 to 0.5 µM. In the assay on HAP1 MTAP-deleted, the “MTAP Intact/Deleted Ratio” value is “C* (an IC50 ratio of less than 3 fold between the IC50 in the HAP1 MTAP-intact cell line and the HAP1 MTAP-deleted cell line)”. The “SAM/MTA Ratio” value at PRMT5 [3] (setting [4]) was “A (a Ki ratio greater than or equal to 10 fold between the Ki in the presence of SAM and the Ki in the presence of MTA)”.

As for `COCCN(C)c1cc(C(=O)NC[C@H](O)CN2CCc3cc(OCc4ocnc4C)c(F)cc3C2)cc(NC2CCN(C(C)=O)CC2)n1` [Compound 612, 2-[(1-acetyl-4-piperidyl)amino]-N-[(2S)-3-[7-fluoro-6-[(4-methyloxazol-5-yl)methoxy]-3N-dihydro-1H-isoquinolin-2-yl]-2-hydroxy-propyl]-6-[2-methoxyethyl(methyl)amino]pyridine-4-carboxamide], the IC50 against PRMT5 [1] was 0.05 to 0.5 µM; in the assay with HAP1 MTAP-intact, at least 10 µM; in the assay with HAP1 MTAP-deleted it was under 1 µM; at PRMT5 [2], 0.05 to 0.5 µM; at PRMT5 [3], 0.05 to 0.5 µM. Besides, the “MTAP Intact/Deleted Ratio” value in the assay on HAP1 MTAP-deleted was “A* (an IC50 ratio greater than or equal to 10 fold between the IC50 in the HAP1 MTAP-intact cell line and the HAP1 MTAP-deleted cell line)”. Also, the “SAM/MTA Ratio” value on PRMT5 [3] (setting [5]) is “A (a Ki ratio greater than or equal to 10 fold between the Ki in the presence of SAM and the Ki in the presence of MTA)”.

For `CCN1CCN(c2nc(NC3COC3)cc(C(=O)NC[C@H](O)CN3CCc4c(ccc(OCc5cnco5)c4Cl)C3)n2)CC1` [Compound 324], the IC50 is 0.5 to 5 µM on PRMT5 [1] (read-out: No Co-factor IC50); at least 10 µM with HAP1 MTAP-intact; 1 to 10 µM in the assay with HAP1 MTAP-deleted; 0.05 to 0.5 µM on PRMT5 [2]; 0.05 to 0.5 µM at PRMT5 [3]. The “MTAP Intact/Deleted Ratio” value with HAP1 MTAP-deleted is “C* (an IC50 ratio of less than 3 fold between the IC50 in the HAP1 MTAP-intact cell line and the HAP1 MTAP-deleted cell line)”. The “SAM/MTA Ratio” value at PRMT5 [3] (setting [4]) is “A (a Ki ratio greater than or equal to 10 fold between the Ki in the presence of SAM and the Ki in the presence of MTA)”.

Turning to `CC(C)C(=O)N1CCC(Nc2cc(C(=O)NC[C@H](O)CN3CCc4cc(OCc5cnco5)ccc4C3)ccn2)CC1` [Compound 458, N-[(2S)-2-hydroxy-3-[6-(oxazol-5-ylmethoxy)-3,4-dihydro-1H-isoquinolin-2-yl]propyl]-2-[[1-(2-methylpropanoyl)-4-piperidyl]amino]pyridine-4-carboxamide], the concentration for half-maximal inhibition (IC50) against PRMT5 [1] was 0.5 to 5 µM; in the assay with HAP1 MTAP-intact, 1 to 10 µM; with HAP1 MTAP-deleted, under 1 µM; on PRMT5 [2], 0.05 to 0.5 µM; on PRMT5 [3], 0.05 to 0.5 µM. Moreover, the “MTAP Intact/Deleted Ratio” value with HAP1 MTAP-deleted is “C* (an IC50 ratio of less than 3 fold between the IC50 in the HAP1 MTAP-intact cell line and the HAP1 MTAP-deleted cell line)”. Further, the “SAM/MTA Ratio” value at PRMT5 [3] (setting [5]) is “A (a Ki ratio greater than or equal to 10 fold between the Ki in the presence of SAM and the Ki in the presence of MTA)”.

Turning to `O=C(NC[C@H](O)CN1CCc2c(ccc(OCc3cnco3)c2Cl)C1)c1ccnc(NC2CCCCC2)c1` [Compound 420, (S)—N-(3-(5-chloro-6-(oxazol-5-ylmethoxy)-3N-dihydroisoquinolin-2(1H)-yl)-2-hydroxypropyl)-2-(cyclohexylamino)isonicotinamide], the IC50 at PRMT5 [1] (read-out: No Co-factor IC50) is 0.5 to 5 µM; with HAP1 MTAP-intact, at least 10 µM; in the assay on HAP1 MTAP-deleted, at least 10 µM; on PRMT5 [2], 0.05 to 0.5 µM; on PRMT5 [3], 0.05 to 0.5 µM. The “MTAP Intact/Deleted Ratio” value in the assay on HAP1 MTAP-deleted is “C* (an IC50 ratio of less than 3 fold between the IC50 in the HAP1 MTAP-intact cell line and the HAP1 MTAP-deleted cell line)”. For the same molecule, the “SAM/MTA Ratio” value on PRMT5 [3] (setting [4]) is “A (a Ki ratio greater than or equal to 10 fold between the Ki in the presence of SAM and the Ki in the presence of MTA)”.

On to `Cc1ncoc1COc1ccc2c(c1C)CCN(C[C@@H](O)CNC(=O)c1cc(NC3CCC3)ccn1)C2` [Compound 555, 4-(cyclobutylamino)-N-[(2S)-2-hydroxy-3-{5-methyl-6-[(4-methyl-1,3-oxazol-5-yl)methoxy]-1,2,3,4-tetrahydroisoquinolin-2-yl}propyl]pyridine-2-carboxamide], for which the IC50 against PRMT5 [1] is at least 5 µM; in the assay on HAP1 MTAP-intact, at least 10 µM; in the assay on HAP1 MTAP-deleted, 1 to 10 µM; on PRMT5 [2], 0.05 to 0.5 µM; on PRMT5 [3], 0.05 to 0.5 µM. Also, the “MTAP Intact/Deleted Ratio” value in the assay with HAP1 MTAP-deleted was “C* (an IC50 ratio of less than 3 fold between the IC50 in the HAP1 MTAP-intact cell line and the HAP1 MTAP-deleted cell line)”. Besides, at PRMT5 [3] (setting [5]), the “SAM/MTA Ratio” value was “A (a Ki ratio greater than or equal to 10 fold between the Ki in the presence of SAM and the Ki in the presence of MTA)”.

`CC(=O)N1CCC(Nc2cc(C(=O)NC[C@H](O)CN3CCc4nc(OCc5ocnc5C)ccc4C3)ccn2)CC1` [Compound 617, 2-[(1-acetyl-4-piperidyl)amino]-N-[(2S)-2-hydroxy-3-[2-[(4-methyloxazol-5-yl)methoxy]-7,8-dihydro-5H-1,6-naphthyridin-6-yl]propyl]pyridine-4-carboxamide]: the 50% inhibitory concentration (IC50) against PRMT5 [1] is 0.5 to 5 µM; with HAP1 MTAP-intact, at least 10 µM; in the assay with HAP1 MTAP-deleted, 1 to 10 µM; at PRMT5 [2] it was 0.05 to 0.5 µM; at PRMT5 [3], 0.05 to 0.5 µM. In addition, the “MTAP Intact/Deleted Ratio” value in the assay with HAP1 MTAP-deleted was “C* (an IC50 ratio of less than 3 fold between the IC50 in the HAP1 MTAP-intact cell line and the HAP1 MTAP-deleted cell line)”.

`Cc1c(OCc2cnco2)ccc2c1CCN(C[C@@H](O)CNC(=O)c1ccnc(NC3CCN(S(C)(=O)=O)CC3)c1)C2` [Compound 386, (S)—N-(2-hydroxy-3-(5-methyl-6-(oxazol-5-ylmethoxy)-3N-dihydroisoquinolin-2(1H)-yl)propyl)-2-((1-(methylsulfonyl)piperidin-4-yl)amino)isonicotinamide]: the IC50 on PRMT5 [1] (read-out: No Co-factor IC50) was 0.5 to 5 µM; with HAP1 MTAP-intact, at least 10 µM; in the assay on HAP1 MTAP-deleted, 1 to 10 µM; at PRMT5 [2], 0.05 to 0.5 µM; on PRMT5 [3], 0.05 to 0.5 µM. The “MTAP Intact/Deleted Ratio” value in the assay with HAP1 MTAP-deleted was “C* (an IC50 ratio of less than 3 fold between the IC50 in the HAP1 MTAP-intact cell line and the HAP1 MTAP-deleted cell line)”. Besides, the “SAM/MTA Ratio” value on PRMT5 [3] (setting [4]) is “A (a Ki ratio greater than or equal to 10 fold between the Ki in the presence of SAM and the Ki in the presence of MTA)”.

Turning to `CC(=O)N1CCC(Nc2cc(C(=O)NC[C@H](O)CN3CCc4cc(OCc5ocnc5C)c(F)cc4C3)ncn2)CC1` [Compound 576, 6-[(1-acetyl-4-piperidyl)amino]-N-[(2S)-3-[7-fluoro-6-[(4-methyloxazol-5-yl)methoxy]-3N-dihydro-1H-isoquinolin-2-yl]-2-hydroxy-propyl]pyrimidine-4-carboxamide], the concentration for half-maximal inhibition (IC50) against PRMT5 [1] was in the range of 0.5 to 5 µM; in the assay on HAP1 MTAP-intact it was 1 to 10 µM; in the assay with HAP1 MTAP-deleted it was 1 to 10 µM; at PRMT5 [2] it was 0.05 to 0.5 µM; at PRMT5 [3], 0.05 to 0.5 µM. The “MTAP Intact/Deleted Ratio” value in the assay with HAP1 MTAP-deleted is “B* (an IC50 ratio greater than or equal to 3 fold but lower than 10 fold between the IC50 in the HAP1 MTAP-intact cell line and the HAP1 MTAP-deleted cell line)”. Moreover, at PRMT5 [3] (setting [5]), the “SAM/MTA Ratio” value was “A (a Ki ratio greater than or equal to 10 fold between the Ki in the presence of SAM and the Ki in the presence of MTA)”.
